These results are taken from patent US12508271B2, “Prodrugs of 2-PMPA for healthy tissue protection during PSMA-targeted cancer imaging or radiotherapy” (The Johns Hopkins University, priority 2017, dated 2025).

Data set [1] addresses T1, PSMA (Mus musculus, UniProt O35409). The settings on record: 2-PMPA 0.01 mg co-injection with 177Lu-PSMA I&T (100 MBq); cited from earlier work.
Data set [2] deals with T2, PSMA (Homo sapiens, UniProt Q04609). The following applies: 2-PMPA 0.01 mg co-injection with 177Lu-PSMA I&T (100 MBq); cited from earlier work.
T2 sequence (Q04609 whole entry): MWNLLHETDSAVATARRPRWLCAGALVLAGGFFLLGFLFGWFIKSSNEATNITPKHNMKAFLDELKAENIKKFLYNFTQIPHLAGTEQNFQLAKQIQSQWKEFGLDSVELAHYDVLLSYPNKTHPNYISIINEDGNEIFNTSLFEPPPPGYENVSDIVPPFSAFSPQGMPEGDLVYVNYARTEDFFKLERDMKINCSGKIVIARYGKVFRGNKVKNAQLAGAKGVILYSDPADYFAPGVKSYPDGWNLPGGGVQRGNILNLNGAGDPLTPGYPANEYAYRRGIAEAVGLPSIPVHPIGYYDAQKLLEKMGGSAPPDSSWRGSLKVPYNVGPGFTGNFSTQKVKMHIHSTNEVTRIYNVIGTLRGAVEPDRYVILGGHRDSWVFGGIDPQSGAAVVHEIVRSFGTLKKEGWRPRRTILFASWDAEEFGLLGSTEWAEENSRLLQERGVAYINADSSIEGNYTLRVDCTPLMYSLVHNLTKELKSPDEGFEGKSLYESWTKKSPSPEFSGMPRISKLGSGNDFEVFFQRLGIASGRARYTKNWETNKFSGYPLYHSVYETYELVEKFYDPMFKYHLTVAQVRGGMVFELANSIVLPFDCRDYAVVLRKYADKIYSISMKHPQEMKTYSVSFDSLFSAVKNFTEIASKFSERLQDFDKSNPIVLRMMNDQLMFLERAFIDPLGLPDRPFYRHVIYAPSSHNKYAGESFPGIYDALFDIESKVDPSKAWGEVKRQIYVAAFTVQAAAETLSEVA
A short description of data set [3]: Pharmacokinetics/tissue distribution of 2-PMPA in C4-2 prostate cancer tumor-bearing NSG mice. The format is in vivo. The settings on record: 2-PMPA administered directly, 3 mg/kg i.v. The protocol:
To generate a C4-2 in vivo model, 3×10^6 LNCaP-C4-2 cells were subcutaneously injected into the flanks of male NSG mice. When tumors grew to approximately 600-800 mm^3, tumors were excised, aseptically cut into 2-mm×2-mm pieces and frozen back viably (5% DMSO/95% FBS). Tumors were not passaged from mouse to mouse more than 4 times. For the current experiment, two vials of viably frozen explants were thawed at 37° C. Tumor explants were washed in RPMI without FCS and then surgically implanted in a subcutaneous pocket in male NSG mice. When tumors reached 600-800 mm^3, mice were euthanized, tumors excised aseptically, and cut into 2-mm×2-mm pieces prior to re-implantation into 40 mice. When tumors reached 500-700 mm^3, the pharmacokinetic experiment was performed. 2-PMPA (3 mg/kg, i.v.) or a molar equivalent of Tris-POC-2-PMPA (7.62 mg/kg, i.v.) were injected via tail vein after dissolution in vehicle (5% EtOH/10% Tween 80/85% 50 mM HEPES). Mice were then euthanized under isoflurane anesthesia 0.25, 0.5, 1, 3, or 6 hours later (n=3/group). Blood was collected by cardiac puncture into EDTA-lined tubes and stored on ice until plasma was isolated by centrifugation. Salivary glands, kidneys, and tumor were harvested and flash frozen on dry ice. All tissues were stored at −80° C. prior to bioanalysis.

The conditions of data set [4]: cited from earlier work.
Data set [5] concerns the target T1, PSMA. Put plainly: Displacement study of 68Ga-PSMA-617 in LNCaP tumor xenograft bearing nude mice (PET). The format is in vivo. Set-up: from tissue; host or cells: kidney of nude mice bearing LNCaP xenografts (PET). The protocol:
(§1) 5*10^6 LNCaP cells (BD Biosciences) were implanted behind the left shoulder of n=3 nude mice; tumors reached a diameter of approximately 1-cm diameter 8-12 weeks after inoculation. Baseline uptake of the radiopharmaceutical in kidneys and tumor was quantified per animal PET-scan (Siemens, Inveon) 1 h after injection of ^68Ga-PSMA-617 (10-40 MBq ^68Ga tagged to […] PSMA-617 precursor). Immediately after the baseline scan animals were injected with 0.5 mg/kgBW or 0.05 mg/kgBW Tris-POC-2-PMPA in […] saline or pure saline as control. Another 1 h later, i.e., 2 h after injection of the PET-tracer, ^68Ga-PSMA-617 uptake in kidneys and tumor were re-evaluated per second animal PET (displacement scan).

Data set [6] addresses T2, PSMA. Briefly: Kidney and salivary gland uptake of 68Ga-PSMA-617 in healthy human subject with and without Tris-POC-2-PMPA pre-dosing (PET). The format is in vivo. Set-up: from tissue; host or cells: kidneys, salivary and lacrimal glands, and tumour lesions/metastases of living human subjects (PET / gamma imaging). The method, then: From a couple of patients who had been imaged (Siemens, mCT) 0.1 h, 1 h, 2 h, 3 h and 4 h after injection of ^68Ga-PSMA-617 previously (Afshar-Oromieh et al., 2015), one subject without relevant tumor-load (<5 mL) was chosen to quantify the physiologic spontaneous tracer uptake in kidneys and salivary gland during the examination time. For the intervention experiment, one healthy volunteer was injected with […] (0.05 mg/kgBW) Tris-POC-2-PMPA solution (in 2.5 mL of 30% ethanol) 15 min before application of the PET-tracer. Again, PET-scans (Siemens, mCT) were performed 0.1 h, 1 h, 2 h, 3 h and 4 h after injection of ^68Ga-PSMA-617 and quantified per SUVmax for tracer uptake in kidneys and salivary glands over time.

Data set [7] has as its target T2, PSMA. Put plainly: Tumor, kidney and salivary gland uptake of 68Ga-PSMA-617 in a prostate cancer patient with and without Tris-POC-2-PMPA pre-dosing (PET). Also noted: from tissue; host or cells: kidneys, salivary and lacrimal glands, and tumour lesions/metastases of living human subjects (PET / gamma imaging). The format is in vivo. The protocol:
One patient was PET imaged 1 h after injection of ^68Ga-PSMA-617 and quantified per SUVmax for tracer uptake in tumor, kidneys and salivary glands. On a subsequent day, the same patient was imaged using the same protocol but with pretreatment of 10 mg (0.1 mg/kgBW) Tris-POC-2-PMPA solution (in 2.5 mL of 30% ethanol) 15 min before application of the PET-tracer.

Data set [8] concerns the target T3, renal PSMA (Mus musculus, UniProt O35409).
T3 construct: from tissue; host or cells: kidney of living NMRI mice (PET)
Put plainly: Displacement study of 68Ga-PSMA-617 in non-tumor-bearing NMRI mice (PET). The settings on record: 0.5 mg/kg i.v. 1 h after tracer, scan 2 h after tracer. The format is in vivo. The method, then: ^68Ga-PSMA-617 was synthesized as described previously (Afshar-Oromieh et al., 2015). The specific activity of the radiopharmaceutical used in the presented animal study (20 MBq of ^68Ga tagged to 0.2-0.8 μg of precursor peptide) corresponds to the one used in clinical application (Afshar-Oromieh et al., 2015). Three non-tumor-bearing NMRI mice were injected via the tail vein with 20 MBq of ^68Ga-PSMA-617. 1 h post injection, enough time for specific tracer binding to renal PSMA and clearance of unbound tracer from the kidney calices, mice were imaged in a dedicated small animal PET-scanner (Siemens, Inveon) to quantify kidney uptake (baseline-scan). Immediately after the baseline scan 16 μg Tris-POC-2-PMPA (0.5 mg/kg*32.1 g bodyweight (BW) of all mice) in 100 μL saline was injected via the tail vein. Another 1 h later, i.e., 2 h after injection of the PET-tracer, ^68Ga-PSMA-617 kidney uptake was re-evaluated per animal PET (displacement-scan).

Data set [9] is described as follows: Comparative tissue distribution of 2-PMPA prodrugs versus equimolar 2-PMPA in nude mice (kidney 2-PMPA by LC/MS-MS). The format is in vivo. The following applies: 5 mg/kg or molar equivalent, i.p., 30 minutes. The method, then:
Nude mice were administered either 2-PMPA or the prodrugs LTP-144 or Tris-POC-2-PMPA (compound 10 of Table 1) (5 mg/kg or molar equivalent, i.p.) prior to brief isoflurane anesthesia, saline perfusion, and sacrificed 30 minutes later. Kidneys were removed and flash frozen in liquid nitrogen. Each tissue sample was assessed for 2-PMPA concentration using previously described LC/MS-MS based bioanalysis (Majer et al., 2016). In addition, a prodrug of the urea-based PSMA ligand ZJ-43 (with similar pro-moiety modifications to Tris-POC-2-PMPA) was tested using similar methods.

Data set [10] has as its target T2, PSMA. Briefly: 177Lu-PSMA-617 radiation dosimetry in mCRPC patients with Tris-POC-2-PMPA pre-treatment versus historical controls. The settings on record: for 177Lu-PSMA-617 absorbed dose, kidneys / 177Lu-PSMA-617 absorbed dose, parotid gland / 177Lu-PSMA-617 absorbed dose, submandibular gland / 177Lu-PSMA-617 mean dose to metastases: 15 minutes prior to infusion. Also noted: from tissue; host or cells: kidneys, salivary and lacrimal glands, and tumour lesions/metastases of living human subjects (PET / gamma imaging). The format is in vivo. The method, then:
^177Lu-PSMA-617 was offered as surrogate therapy in accordance with the updated Declaration of Helsinki, paragraph-37 “Unproven Interventions in Clinical Practice,” and in accordance with German regulations for “compassionate use,” which includes priority of all approved treatments (without contraindications) and confirmation of the indication by both a nuclear medicine physician and an external expert in urology or oncology. No systematic patient selection was performed, except all patients had to present with a PSMA-positive tumor phenotype based on PSMA imaging. All patients were informed about the experimental nature of this therapy and gave written informed consent. The institutional review board approved this retrospective study. Two patients were pre-treated with Tris-POC-2-PMPA prior to administration of ^177Lu-PSMA-617. […] Dosimetry data from historical controls presented herein are derived from patients treated under the same protocol at our center as previously reported (J Nucl Med. 2016 August; 57(8):1170-6.). All dosimetry methods were conducted as previously described in that report (J Nucl Med. 2016 August; 57(8):1170-6.).

In data set [11] the test system is PSMA. Put plainly: Displacement study of 68Ga-PSMA-617 in LNCaP tumor xenograft bearing nude mice (PET). The format is in vivo. The following applies: average of two animals, 0.5 or 0.05 mg/kgBW after baseline scan; baseline mSUV 1.02; saline control mSUV 0.84. The method, then: as §1
Setting [12] is: 10 mg, i.v., 15 minutes prior to tracer, PET 1 h p.i., same patient.

T1 sequence (O35409 whole entry): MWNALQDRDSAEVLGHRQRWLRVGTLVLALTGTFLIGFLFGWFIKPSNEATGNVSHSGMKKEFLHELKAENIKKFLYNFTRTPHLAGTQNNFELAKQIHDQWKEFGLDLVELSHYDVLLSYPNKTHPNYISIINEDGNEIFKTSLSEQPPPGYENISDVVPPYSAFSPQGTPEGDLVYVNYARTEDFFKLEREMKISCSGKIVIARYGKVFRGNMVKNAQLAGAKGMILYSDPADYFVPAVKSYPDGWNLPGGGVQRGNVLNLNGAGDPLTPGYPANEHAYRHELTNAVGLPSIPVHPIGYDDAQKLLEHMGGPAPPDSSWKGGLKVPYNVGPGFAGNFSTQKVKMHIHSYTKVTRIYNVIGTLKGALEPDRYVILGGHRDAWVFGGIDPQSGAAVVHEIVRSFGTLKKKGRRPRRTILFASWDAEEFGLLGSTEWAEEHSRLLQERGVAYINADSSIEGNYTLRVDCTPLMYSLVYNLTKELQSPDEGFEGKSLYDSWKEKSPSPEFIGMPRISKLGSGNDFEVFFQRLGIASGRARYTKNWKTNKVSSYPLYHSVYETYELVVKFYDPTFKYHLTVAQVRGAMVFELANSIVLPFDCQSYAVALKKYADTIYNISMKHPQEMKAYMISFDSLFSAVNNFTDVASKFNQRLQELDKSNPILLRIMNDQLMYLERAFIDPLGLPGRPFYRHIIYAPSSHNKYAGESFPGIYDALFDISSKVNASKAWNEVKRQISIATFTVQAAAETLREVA
T3 sequence (O35409 whole entry): as above

In the case of `O=C(O)CCC(CP(=O)(O)O)C(=O)O` (stereo not shown) [Compound 2-PMPA, 2-(phosphonomethyl)pentanedioic acid], in data set [1], the “nephrotoxicity 3 months later” value was “attenuated nephrotoxicity” and the “reduction of absorbed dose to the kidneys” value was 83%. The “inhibition of tumor uptake of the radiotherapeutic” value in data set [2] was “more than 50%”. In [3], the “2-PMPA kidney exposure, fold lower than achieved with TRIS-POC-2-PMPA delivery” value amounted to 4 fold and the “2-PMPA salivary gland exposure, fold lower than achieved with TRIS-POC-2-PMPA delivery” value is given as 10 fold. Also, the salivary gland penetration entry in data set [4] (2-PMPA administered as parent) is reported as “little to no”. In data set [4] (in vivo, po), the oral availability entry is “negligible”.
For `CC(C)OC(=O)OCOC(=O)C(CCC(=O)O)CP(=O)(OCOC(=O)OC(C)C)OCOC(=O)OC(C)C` (stereo not shown) [Tris-POC-2-PMPA], in data set [5] (0.5 or 0.05 mg/kgBW after baseline scan, baseline mSUV 2.36, saline control mSUV 0.47), the “kidney uptake of 68Ga-PSMA-617 in displacement-scan” value worked out at 0.24 mSUV. In addition, the “kidney uptake lower than achieved with forced diuresis (saline control)” value in data set [5] (displacement-scan, 2 h after tracer) amounted to 50%. In addition, the “decrease of maximum 68Ga-PSMA-617 uptake in kidney parenchyma versus representative control” value in [6] (5 mg (0.05 mg/kgBW) 15 min before tracer, healthy volunteer) was 65%. Further, in data set [6] (5 mg (0.05 mg/kgBW) 15 min before tracer, control without pre-dosing 41.2), the “maximum 68Ga-PSMA-617 uptake in parotid glands” value is listed as 13.5 SUVmax. Besides, the “maximum 68Ga-PSMA-617 uptake in kidney parenchyma” value in data set [6] (5 mg (0.05 mg/kgBW) 15 min before tracer, control without pre-dosing 47.5) is 16.5 SUVmax. Moreover, the “displacement of 68Ga-PSMA-617 binding to kidney and salivary glands” value in data set [6] (pre-administration, healthy human male) is “approximately 65%”. The “mean change of 68Ga-PSMA-617 uptake in metastases” value in data set [7] (10 mg, i.v., 15 minutes prior to tracer) came to 3%. In [7] (setting [12]), the “68Ga-PSMA-617 uptake in kidneys after pre-treatment” value is 8.5 SUVmax, the “68Ga-PSMA-617 uptake in metastases after pre-treatment” value is on record as 3.9-8.8 SUVmax, the “68Ga-PSMA-617 uptake in parotid gland after pre-treatment” value turned out to be 10.6 SUVmax and the “68Ga-PSMA-617 uptake in submandibular gland after pre-treatment” value was determined as 14.6 SUVmax. Also, the “effect on tumor uptake of the tracer” value in [7] (intraindividual comparison, prostate cancer patient) is listed as “completely spared tumor uptake”. Further, the “residual kidney uptake relative to baseline” value in data set [8] is given as < 10 % of baseline-uptake. Moreover, in [8] (baseline-scan 3.4 mSUV), the “residual kidney uptake of 68Ga-PSMA-617 in displacement-scan” value stood at 0.3 mSUV. Besides, the “concentrations of 2-PMPA in the kidney compared to an equimolar dose of 2-PMPA” value in data set [9] was “significantly increased”. Besides, in data set [10] (patient 1, 10 mg, i.v.), the “177Lu-PSMA-617 absorbed dose, kidneys” value was determined as 0.38 Gy/GBq; the “177Lu-PSMA-617 absorbed dose, parotid gland” value worked out at 0.24 Gy/GBq; the “177Lu-PSMA-617 absorbed dose, submandibular gland” value came out at 0.5 Gy/GBq; the “177Lu-PSMA-617 mean dose to metastases” value is 8.03 Gy/GBq. In addition, in data set [10] (patient 2, 10 mg, i.v.), the “177Lu-PSMA-617 absorbed dose, kidneys” value was determined as 0.43 Gy/GBq; the “177Lu-PSMA-617 absorbed dose, parotid gland” value amounted to 0.46 Gy/GBq; the “177Lu-PSMA-617 absorbed dose, submandibular gland” value turned out to be 0.44 Gy/GBq; the “177Lu-PSMA-617 mean dose to metastases” value was 13.15 Gy/GBq. Moreover, in data set [10] (pre-treatment), the “effect on liver exposure to 177Lu-PSMA-617” value is “modestly reduce” and the “effect on spleen dose of 177Lu-PSMA-617” value is “no clear effect”. In data set [10] (pre-treatment before 177Lu-PSMA-617), the “dose reduction to the lacrimal glands relative to mean control values” was “about 82%”. Also, the “effect on the 177Lu-PSMA-617 dose to metastases” value in [10] (pre-treatment, versus historical controls) is recorded as “little or no effect”. The “dose reduction, salivary glands, relative to historical controls” value in data set [10] (two patients, prior to infusion of 177Lu-PSMA-617) was 72%. For the same compound, in data set [10] (two patients, 10 mg, i.v.), the “mean absorbed dose reduction, kidneys, relative to historical controls” value is given as 45%; the “mean absorbed dose reduction, parotid gland, relative to historical controls” value stood at 76%; the “mean absorbed dose reduction, submandibular gland, relative to historical controls” value was determined as 67%. Besides, the “mean absorbed dose reduction, kidneys, relative to historical controls” value in data set [10] (two patients, 10 mg, i.v., listed as TRIS-POC-2-PMPA) is listed as 48%. In [11], the “tumor uptake of 68Ga-PSMA-617 in displacement-scan” value is listed as 1.00 mSUV.
